Test results as given in ChEMBL document CHEMBL3507680, “University of Dundee, Gates Library screen for HepG2 cell viability”.

Test: Human HepG2 cell viability assay in 384 well format
Type: toxicity, cell-based
Parameters: dose 125 nL, time 70.5 hour; cytotoxicity at 70.5 h: concentration not given beside the values
Details: HepG2 cells, read-out: Inhibition

SMILES	cytotoxicity at 70.5 h
COc1ccc(CC(=O)N2CCCC2c2nc(C)c(C)c(O)n2)cc1 (stereo not given)	-2.14%
Cc1nc(C2CCCN2C(=O)Cc2cccc(F)c2)nc(O)c1C (stereo not given)	21.4%
O=C(c1ccc(F)cc1)N(CCCO)S(=O)(=O)c1cccs1	-16.3%
Cc1ccc(N2CCC(NC(C)c3ccc(C)o3)CC2)nc1 (stereo not given)	-4.68%
Cn1cc(C2CCCN2C(=O)CCCc2nc3ccccc3[nH]2)cn1 (stereo not given)	4.56%
O=C(COCC1CC1)N1CCCC1c1nc(-c2ccccc2F)c[nH]1 (stereo not given)	2.15%
Cc1noc(CNc2ccc(CC(=O)N3CCSCC3)cc2)n1	-5.52%
CCc1noc(CNc2ccc(CC(=O)N3CCSCC3)cc2)n1	-6.52%
Cn1c(CS(=O)(=O)Cc2ccc(Cl)cc2)cc(=O)n(C)c1=O	-6.35%
Cn1c(CS(=O)(=O)c2ccc(Cl)cc2)cc(=O)n(C)c1=O	-4.14%
COc1ccc(C(NC(=O)NCc2nnc3n2CCC3)C2CC2)cc1 (stereo not given)	14.3%
CN(C)C(=O)c1cccc(NC(=O)c2cnn(C)c2)c1	-4.77%
Cc1ccccc1CC(=O)NCCNc1nccc(C(F)(F)F)n1	-8.29%
COc1cccc(C(CO)NC(=O)NC(C)C)c1 (stereo not given)	11.8%
CC(Cc1c(F)cccc1F)NC(=O)NCc1ncnn1C (stereo not given)	-2.54%
CC(CCc1cccc(F)c1)NC(=O)NCc1ncnn1C (stereo not given)	-5.76%
CC(=O)N1CCCC(c2nc(-c3ccccc3)c[nH]2)C1 (stereo not given)	-3.53%
CC(C)(C)Oc1ccncc1NCc1cscn1	-3.05%
COc1cccc(C(CO)NC(=O)Cc2ccc(F)c(Br)c2)c1 (stereo not given)	-3.64%
CN(C)C(=O)c1cccc(Nc2cnn(C)c2)c1	-3.59%
CNC(=O)c1cccc(Nc2cnn(C)c2)c1	-1.28%
CCOCCCC(=O)N1CCCC1c1nc(-c2ccccc2F)c[nH]1 (stereo not given)	-2.77%
Cn1cc(Nc2cccc(C(=O)N(CC(N)=O)C3CCCC3)c2)cn1	-3.71%
CC(NCCCn1ccnc1)c1ccc(N2CCOC2=O)cc1 (stereo not given)	16.7%

SMILES	cytotoxicity at 70.5 h
Cc1ccccc1C(C)NC(=O)CN1CCN(Cc2cccs2)CC1 (stereo not given)	0.186%
O=C(CCC1CCCCC1)NCc1nnc2ccccn12	-1.08%
CN(C)Cc1ccccc1NC(=O)c1ccc(C#N)cc1	-7.54%
CN(Cc1nnc2ccccn12)C(=O)CCNC(=O)C(C)(C)C	17.1%
CN(c1ncccc1C#N)C1CCN(Cc2ccncc2)CC1	-3.31%
Cc1nc(-c2ccccc2)sc1C(=O)N(C1CC1)C1CC(=O)NC1=O (stereo not given)	-8.02%
Cc1cnc(NS(=O)(=O)c2cccc(C#N)c2)s1	20.1%
Cc1cccc(NC(=O)CCC(=O)NCC(=O)c2ccccc2F)c1	2.08%
CC(C)(C)n1cc(CNC2CCN(C(=O)c3ccncc3)CC2)cn1	-1.24%
O=C(CCC(=O)Nc1ccccc1)NCC(=O)c1ccc(F)cc1F	5.75%
O=C1CC(N(C(=O)c2csc(-c3ccccc3)n2)C2CC2)C(=O)N1 (stereo not given)	10.8%
CN(Cc1nnc2ccccn12)C(=O)CCC1CCCC1	-8.63%
CN(c1ncccc1C#N)C1CCN(CCc2ccncc2)CC1	-1.68%
Cc1nc2n(n1)CC(NCc1nc(-c3cccs3)no1)CC2 (stereo not given)	0.591%
CC(C)(C)OC(=O)N1CCC(NCc2cnn(C(C)(C)C)c2)CC1	-2.5%
Cc1nc2cc(=O)[nH]n2c(C)c1CNC(=O)C(C)Cc1ccccc1 (stereo not given)	3.77%
Cc1ccc(CC(=O)NCC(O)c2cc(Cl)cc(Cl)c2)cn1 (stereo not given)	-3.94%
CCc1nnc(SC2CCN(c3ccccc3F)C2=O)n1C (stereo not given)	-2.9%
COC(C(=O)NCc1c(C)nc2cc(=O)[nH]n2c1C)c1ccccc1 (stereo not given)	-3.2%
Cn1c(N)nnc1SC1CCCN(c2ccccc2F)C1=O (stereo not given)	-1.56%
CCOc1ccc(NC(=O)c2[nH]c(C)cc2C)cc1CO	20.6%
CCOc1ccc(NC(=O)c2ccc(C#N)cc2C)cc1CO	-1.73%
Cn1c(CO)cnc1SC1CCCN(c2ccccc2F)C1=O (stereo not given)	6.04%
CC(C)(C)n1cc(CNC2CCN(C(=O)c3ccco3)CC2)cn1	1.29%

SMILES	cytotoxicity at 70.5 h
CC(NCCCn1cccn1)c1ccc(N2CCCS2(=O)=O)cc1 (stereo not given)	-4.88%
CCOc1ccc(NC(=O)Cc2cc(C)[nH]n2)cc1CO	-7.67%
COC(=O)c1cccc(C(=O)N(C)Cc2ccsc2)c1	22.5%
CCN1CCOC(CNCc2cnc(N(CC)CC)s2)C1 (stereo not given)	5.52%
Cc1ccc(S(N)(=O)=O)cc1C(=O)NC1CCCC1	-1.13%
Cc1ncc(C(=O)NCCNc2ccncc2)s1	-3.98%
CCc1ncc(C(=O)NCCNc2ccncc2)s1	-0.807%
COC(=O)N1CCC(NC(=O)c2cc(S(N)(=O)=O)ccc2C)CC1	2.43%
Cc1cc(N(C)C)nc(N2CCCC2c2ccccn2)n1 (stereo not given)	-3.12%
CC(=O)N1CCC(NC(=O)c2cc(S(N)(=O)=O)ccc2C)CC1	-3.13%
O=C(CC1CCCO1)NS(=O)(=O)Cc1cc(-c2ccccc2)no1 (stereo not given)	20.6%
COc1cccc(CN(C)CCCn2cnc3c(N)ncnc32)c1	-9.38%
CN(CCCn1cnc2c(N)ncnc21)Cc1ccccc1	-4.43%
COC(=O)Nc1cccc(C(=O)N(C)Cc2cccc(O)c2)c1	-6.41%
Cc1noc(C)c1CSCc1csc(CS(C)(=O)=O)n1	0.624%
COc1ccc(OCCN(C)CCCn2cnc3c(N)ncnc32)cc1	-5.85%
CCOc1cccc(COC(=O)c2cc(C)on2)n1	1.07%
CNC(=O)COc1c(F)cc(Br)cc1C(C)=O	-5.63%
O=C(C1SCCc2ccccc21)N1CCC(O)CC1 (stereo not given)	-7.52%
CN(CC(=O)NS(=O)(=O)c1ccc(F)cc1)Cc1ccccc1	-3.97%
Cc1n[nH]c(C)c1CCC(=O)NC1CCCN(c2ccccc2F)C1 (stereo not given)	6.82%
Cc1noc(C)c1CN(C)Cc1csc(-c2ccc(F)cc2)n1	-8.1%
CCOc1ccc(C(=O)NCc2ccnc(N3CCN(C)CC3)c2)cn1	-7.61%
COCc1cc(N(C)Cc2ccccn2)nc(C(C)(C)C)n1	-10.1%

SMILES	cytotoxicity at 70.5 h
N#Cc1ccc(NCCS(=O)(=O)N2CCc3ccccc32)nc1	13%
CNS(=O)(=O)c1ccc(CNC(=O)N2CCOC(C)C2)cc1 (stereo not given)	10.2%
Cc1cc(C)n(CC(C)CNC(=O)NCc2csc(C)n2)n1 (stereo not given)	42.1%
O=C(CCSc1ccccc1F)NCc1cccnc1	-8.87%
N#Cc1ccc(CNCCS(=O)(=O)N2CCc3ccccc32)cc1	-10.2%
N#Cc1cccc(S(=O)(=O)NC(=O)c2csc(-c3ccco3)n2)c1	16.6%
CS(=O)(=O)CCNC(=O)c1cc2ccccc2nc1N1CCCC1	-7.07%
COc1ccc2c(c1)NC(=O)C2OC(=O)CCc1ccc(F)cc1 (stereo not given)	2.64%
O=S(=O)(CC1CCCCO1)Nc1cnn(Cc2ccccc2)c1 (stereo not given)	-7.62%
NS(=O)(=O)CCNC(=O)c1cc2ccccc2nc1N1CCCC1	-5.72%
O=C(NCC(=O)N1CCCC1Cc1cccc(F)c1)c1ccccn1 (stereo not given)	-9.78%
O=C(NCCSc1ccccc1F)NCc1cccnc1	-6.59%
CCOC(=O)NCCNC(=O)c1cc2ccccc2nc1N1CCCC1	2.35%
O=C(CCc1ccsc1)Nc1ccnn1C1CCS(=O)(=O)C1 (stereo not given)	16.5%
O=C(NCCCSc1ccc(F)cc1)C1CCc2cn[nH]c2C1 (stereo not given)	-4.46%
CCCn1nc2c(cc1=O)CN(c1ncnc3sccc13)CC2	-10.8%
Cc1nc(CNC(=O)N2CCN(c3ccc(Cl)cn3)CC2)no1	3.34%
CCc1[nH]nc(NC(=O)c2cc[nH]n2)c1C	6.09%
CCc1[nH]nc(NC(=O)c2ccc(Cl)cn2)c1C	7.84%
O=C(Cc1ccon1)N1CCN(c2ccc(F)cc2Cl)CC1	-6.01%
CNC(=O)NCC(=O)N1CCCC1Cc1cccc(F)c1 (stereo not given)	2.87%
CCc1nc(CCNc2ncccn2)sc1C	-7.68%
O=C(CCNCc1cccc2c1OCCCO2)NC1CCCC1	6.45%
CCc1nc2n(n1)CC(NCc1nc3ccccc3nc1C)CC2 (stereo not given)	1.64%

SMILES	cytotoxicity at 70.5 h
COCc1nc2cc3c(cc2c(=O)o1)OCCCO3	-7.11%
COc1ccccc1OCc1nc2cc3c(cc2c(=O)o1)OCCCO3	31.8%
COC(=O)CSCc1noc(-c2ccc(Cl)cc2)n1	-13.5%
COC(=O)CSCc1nc(-c2ccc(Cl)cc2)no1	11%
Cc1ccc(-c2cc(CN(CC(N)=O)CC(C)C)on2)cc1	-2.81%
CN(C)c1nc(N)nc(CN2CCCC(c3ccccc3)CC2)n1 (stereo not given)	-3.13%
Cc1cc(CN(CC(N)=O)CC(C)C)no1	-4.27%
CCn1cnnc1CNC(=O)N1CCOC(c2ccc(Cl)cc2)C1 (stereo not given)	-13.5%
CCn1cnnc1CNC(=O)N1CCOC(c2ccccc2Cl)C1 (stereo not given)	-3.84%
O=C(Nc1cn[nH]c1)NC1CCN(c2ccccc2OC(F)F)C1 (stereo not given)	2.39%
Cc1cc(CNCC2(O)CCOCC2)ccc1F	-0.741%
COC(CNC(=O)c1ccoc1)c1cccc(Cl)c1 (stereo not given)	-5.07%
CCc1nc(CCNc2ncccc2S(N)(=O)=O)sc1C	1.18%
CNC(=O)c1cccnc1NCc1ccc(Cn2cccn2)cc1	-3.1%
CNC(=O)c1cccnc1NCc1ccc(Cn2ccnc2)cc1	34.2%
CNC(=O)c1cccnc1NCc1ccc(-n2cccn2)cc1	4%
Cc1nnc(CN(C)CC(=O)N2CCCC(C(F)(F)F)C2)n1C (stereo not given)	16.8%
CN(Cc1nc(C2CC2)no1)C1CCS(=O)(=O)C1 (stereo not given)	-4.77%
COc1ccc(OCc2noc(CN(C)C3CCS(=O)(=O)C3)n2)cc1 (stereo not given)	-5.76%
CC(C)Cc1noc(CN(C)C2CCCC2)n1	28.6%
CCc1nc2n(n1)CC(NCc1nc3ccccc3o1)CC2 (stereo not given)	-8.97%
CCc1nc2n(n1)CC(NCc1cc3ccccc3o1)CC2 (stereo not given)	-8.62%
CCOc1ccc2ccccc2c1CNCC1CCS(=O)(=O)C1 (stereo not given)	-3.67%
COc1ccccc1NCc1cscn1	-1.66%
